Assay results published in PubChem BioAssay (NCI).
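Method: 48-hour compound exposure of cells in 96-well plates, five concentrations, linear interpolation of endpoints. TGI marks complete inhibition of growth.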

Columns and labels:
Test in all cases: growth of human tumour cells (NCI), 48 h
[1] = system: CAKI-1 renal
[2] = system: A498 renal
[3] = system: RPMI-8226 leukemia
[4] = system: SNB-75 CNS
[5] = system: UACC-62 melanoma
[6] = system: OVCAR-4 ovarian
[7] = system: EKVX NSCLC
[8] = system: MDA-MB-435
[9] = system: SK-MEL-28 melanoma
[10] = system: MOLT-4 leukemia
[11] = system: SF-539 CNS
[12] = system: SNB-19 CNS
[13] = system: MDA-N
[14] = system: RXF 393 renal
[15] = system: TK-10 renal
[16] = system: HCC-2998 colon
[17] = system: NCI-H460 lung
[18] = system: SK-MEL-2 melanoma
[19] = system: DU-145 prostate
[20] = system: COLO 205 colon

SMILES	TGI [1]	TGI [2]	TGI [3]	TGI [4]	TGI [5]	TGI [6]	TGI [7]	TGI [8]	TGI [9]	TGI [10]	TGI [11]	TGI [12]	TGI [13]	TGI [14]	TGI [15]	TGI [16]	TGI [17]	TGI [18]	TGI [19]	TGI [20]
O=c1cc(N=Nc2ccc(Cl)c(Cl)c2)[nH]c(=O)[nH]1	5.56 µM	28.8 µM	5.6 µM	22.5 µM	4.61 µM	8.08 µM	3.49 µM	17.6 µM	3.3 µM	6.48 µM	8.04 µM	26.6 µM	3.36 µM	3.17 µM	3.18 µM	6.35 µM	7.46 µM	12 µM	9.19 µM	3.36 µM
O=S1(=O)OCCOS(=O)(=O)C1Cc1cccc2ccccc12	> 100 µM	28.9 µM	85.3 µM	> 100 µM	57.2 µM	47 µM	80.3 µM	32 µM	21.5 µM	65.9 µM	39.9 µM	87.3 µM	59.3 µM	12 µM	> 100 µM	43 µM	35.4 µM	> 100 µM	31.1 µM	29.2 µM
CCN(CC)c1ccc(/C=C/C(=O)c2cc(C(C)(C)C)c(O)c(C(C)(C)C)c2)cc1	> 100 µM	> 100 µM	38.8 µM	> 100 µM	> 100 µM	> 100 µM	> 100 µM	13.3 µM	> 100 µM	> 100 µM	10.5 µM	> 100 µM	13.5 µM	39.1 µM	97.6 µM	37 µM	38.2 µM	> 71.5 µM	> 100 µM	14.7 µM
COc1ccc(N=NC(=Nc2ccc(Cl)cc2)c2ccc(N(CCC#N)CCC#N)cc2)cc1	> 100 µM	> 100 µM	> 100 µM	> 100 µM	54.1 µM	> 100 µM	> 100 µM	> 100 µM	> 100 µM	91.6 µM	> 100 µM	> 100 µM	> 100 µM	> 100 µM	> 100 µM	> 100 µM	> 100 µM	14.5 µM	> 100 µM	> 100 µM
